Measured values reported in patent publication US20100298141A1, “SUBSTITUTED PYRIDINE N-OXIDE HERBICIDES” (E. I. DU PONT DE NEMOURS AND COMPANY, priority 2007, published 2010).

Tests used:
[1] = test system: windgrass; assay: Test C pre-/postemergence test; format: in vivo, Apera spica-venti; details: Postemergence; for Plant response rating, Windgrass: scale 0 to 100, 0 no effect, 100 complete control
[2] = test system: winter barley; assay: Test C postemergence test; format: in vivo, Hordeum vulgare; details: for Plant response rating (0 to 100), Barley: 31 g ai/ha; for Plant response rating, Barley: scale 0 to 100, 0 no effect, 100 complete control
Summary of the method: (§1)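 Postemergence sprays of formulated test chemicals on plants 2 to 18 cm tall (1- to 4-leaf stage). Greenhouse hold for 13 to 15 days, then visual rating of each species against untreated controls; dash means no test result.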

[3] = test system: canarygrass; assay: Test C postemergence test; format: in vivo, Phalaris minor; details: for Plant response rating (0 to 100), Canarygrass: 31 g ai/ha; for Plant response rating, Canarygrass: scale 0 to 100, 0 no effect, 100 complete control
Summary of the method: as §1

[4] = test system: chickweed; assay: Test C postemergence test; format: in vivo, Stellaria media; details: for Plant response rating (0 to 100), Chickweed: 31 g ai/ha; for Plant response rating, Chickweed: scale 0 to 100, 0 no effect, 100 complete control
Summary of the method: as §1

[5] = test system: large crabgrass; assay: Test F preemergence test; format: in vivo, Digitaria sanguinalis; details: scale 0 to 100
Summary of the method: (§2)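 Visual ratings relative to controls, taken after 14 to 21 days in a greenhouse. Test chemicals, formulated in a surfactant-containing non-phytotoxic solvent mixture, were applied preemergence to sown seeds or postemergence to sugarcane plants.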

[6] = test system: barnyardgrass; assay: Test F preemergence test; format: in vivo, Echinochloa crus-galli
Summary of the method: as §2

[7] = test system: common sowthistle; assay: Test F preemergence test; format: in vivo, Sonchus oleraceous; details: scale 0 to 100; for Sowthistle plant response rating: 125 g ai/ha
Summary of the method: as §2

[8] = test system: common chickweed; assay: Test F preemergence test; format: in vivo, Stellaria media; details: scale 0 to 100
Summary of the method: as §2

[9] = test system: Virginia dayflower; assay: Test F preemergence test; format: in vivo, Commelina virginica; details: 16 g ai/ha, preemergence; scale 0 to 100
Summary of the method: as §2

[10] = test system: Canada horseweed; assay: Test F preemergence test; format: in vivo, Conyza canadensis; details: scale 0 to 100
Summary of the method: as §2

[11] = test system: spanishneedles; assay: Test F preemergence test; format: in vivo, Bidens bipinnata; details: scale 0 to 100; for Spanishneedles plant response rating: 125 g ai/ha
Summary of the method: as §2

[12] = 16 g ai/ha, preemergence, scale 0 to 100 (0 no effect, 100 complete control)
[13] = 62 g ai/ha, Preemergence, scale 0 to 100
[14] = 125 g ai/ha, preemergence, scale 0 to 100
[15] = Preemergence, 31 g ai/ha, scale 0 to 100

## Cn1nc(C(F)(F)F)c(C[S+]([O-])c2ccc(Cl)c[n+]2[O-])c1OCC(F)(F)F (racemic) [Compound 62]
[1]; 31 g ai/ha
  Plant response rating (0 to 100), Windgrass: 70
[1]; 62 g ai/ha
  Plant response rating (0 to 100), Windgrass: 80
[1]; 125 g ai/ha
  Plant response rating, Windgrass: 90
[1]; 250 g ai/ha
  Plant response rating, Windgrass: 100
[2]
  Plant response rating (0 to 100), Barley: 0
[2]; 62 g ai/ha
  Plant response rating, Barley: 0
[2]; 125 g ai/ha
  Plant response rating, Barley: 10
[2]; 250 g ai/ha
  Plant response rating, Barley: 40
[3]
  Plant response rating (0 to 100), Canarygrass: 0
[3]; 62 g ai/ha
  Plant response rating, Canarygrass: 0
[3]; 125 g ai/ha
  Plant response rating, Canarygrass: 0
[3]; 250 g ai/ha
  Plant response rating, Canarygrass: 10
[4]
  Plant response rating (0 to 100), Chickweed: 0
[4]; 62 g ai/ha
  Plant response rating, Chickweed: 0
[4]; 125 g ai/ha
  Plant response rating, Chickweed: 0
[4]; 250 g ai/ha
  Plant response rating, Chickweed: 70
[5]; 16 g ai/ha, preemergence
  Plant response rating, Crabgrass, Large: 15
[5]; 62 g ai/ha, Preemergence
  Crabgrass, Large plant response rating: 90
[5]; 125 g ai/ha, preemergence
  Crabgrass, Large plant response rating: 98
[5]; Preemergence, 31 g ai/ha
  Plant response rating, Crabgrass, Large: 60
[6]; [12]
  Plant response rating, Barnyardgrass: 30
[6]; [13]
  Barnyardgrass plant response rating: 100
[6]; [14]
  Barnyardgrass plant response rating: 100
[6]; [15]
  Plant response rating, Barnyardgrass: 75
[7]; 16 g ai/ha, preemergence
  Plant response rating, Sowthistle: 0
[7]; preemergence
  Sowthistle plant response rating: 98
[7]; Preemergence, 62 g ai/ha
  Plant response rating, Sowthistle: 98
[7]; Preemergence, 31 g ai/ha
  Plant response rating, Sowthistle: 95
[8]; 16 g ai/ha, preemergence
  Plant response rating, Chickweed: 100
[8]; 62 g ai/ha, Preemergence
  Chickweed plant response rating: 100
[8]; 125 g ai/ha, preemergence
  Chickweed plant response rating: 100
[8]; Preemergence, 31 g ai/ha
  Plant response rating, Chickweed: 100
[9]
  Plant response rating, Dayflower: 0
[10]; 16 g ai/ha, preemergence
  Plant response rating, Horseweed: 0
[10]; 62 g ai/ha, Preemergence
  Horseweed plant response rating: 100
[10]; 125 g ai/ha, preemergence
  Horseweed plant response rating: 100
[10]; Preemergence, 31 g ai/ha
  Plant response rating, Horseweed: 100
[11]; 16 g ai/ha, preemergence
  Plant response rating, Spanishneedles: 30
[11]; preemergence
  Spanishneedles plant response rating: 100
[11]; Preemergence, 62 g ai/ha
  Plant response rating, Spanishneedles: 75
[11]; Preemergence, 31 g ai/ha
  Plant response rating, Spanishneedles: 65

## CCn1nc(C(F)(F)F)c(CS(=O)(=O)c2cc(C)cc[n+]2[O-])c1OCC(F)(F)F [Compound 64]
[1]; 31 g ai/ha
  Plant response rating (0 to 100), Windgrass: 0
[1]; 62 g ai/ha
  Plant response rating (0 to 100), Windgrass: 90
[1]; 125 g ai/ha
  Plant response rating, Windgrass: 98
[1]; 250 g ai/ha
  Plant response rating, Windgrass: 100
[2]
  Plant response rating (0 to 100), Barley: 0
[2]; 62 g ai/ha
  Plant response rating, Barley: 0
[2]; 125 g ai/ha
  Plant response rating, Barley: 5
[2]; 250 g ai/ha
  Plant response rating, Barley: 20
[3]
  Plant response rating (0 to 100), Canarygrass: 0
[3]; 62 g ai/ha
  Plant response rating, Canarygrass: 0
[3]; 125 g ai/ha
  Plant response rating, Canarygrass: 5
[3]; 250 g ai/ha
  Plant response rating, Canarygrass: 10
[4]
  Plant response rating (0 to 100), Chickweed: 0
[4]; 62 g ai/ha
  Plant response rating, Chickweed: 0
[4]; 125 g ai/ha
  Plant response rating, Chickweed: 0
[4]; 250 g ai/ha
  Plant response rating, Chickweed: 0
[5]; 16 g ai/ha, preemergence
  Plant response rating, Crabgrass, Large: 10
[5]; 62 g ai/ha, Preemergence
  Crabgrass, Large plant response rating: 75
[5]; 125 g ai/ha, preemergence
  Crabgrass, Large plant response rating: 95
[5]; Preemergence, 31 g ai/ha
  Plant response rating, Crabgrass, Large: 65
[6]; [12]
  Plant response rating, Barnyardgrass: 65
[6]; [13]
  Barnyardgrass plant response rating: 100
[6]; [14]
  Barnyardgrass plant response rating: 100
[6]; [15]
  Plant response rating, Barnyardgrass: 80
[7]; preemergence
  Sowthistle plant response rating: 100
[7]; Preemergence, 62 g ai/ha
  Plant response rating, Sowthistle: 100
[7]; Preemergence, 31 g ai/ha
  Plant response rating, Sowthistle: 0
[8]; 16 g ai/ha, preemergence
  Plant response rating, Chickweed: 65
[8]; 62 g ai/ha, Preemergence
  Chickweed plant response rating: 100
[8]; 125 g ai/ha, preemergence
  Chickweed plant response rating: 100
[8]; Preemergence, 31 g ai/ha
  Plant response rating, Chickweed: 100
[9]
  Plant response rating, Dayflower: 0
[10]; 16 g ai/ha, preemergence
  Plant response rating, Horseweed: 0
[10]; 62 g ai/ha, Preemergence
  Horseweed plant response rating: 50
[10]; 125 g ai/ha, preemergence
  Horseweed plant response rating: 100
[10]; Preemergence, 31 g ai/ha
  Plant response rating, Horseweed: 0
[11]; 16 g ai/ha, preemergence
  Plant response rating, Spanishneedles: 30
[11]; preemergence
  Spanishneedles plant response rating: 60
[11]; Preemergence, 62 g ai/ha
  Plant response rating, Spanishneedles: 40

## Cn1nc(C(F)(F)F)c(C[S+]([O-])c2ccc(F)c[n+]2[O-])c1OCC(F)(F)F (stereo not drawn) [Compound 67]
[1]; 31 g ai/ha
  Plant response rating (0 to 100), Windgrass: 30
[1]; 62 g ai/ha
  Plant response rating (0 to 100), Windgrass: 100
[1]; 125 g ai/ha
  Plant response rating, Windgrass: 100
[1]; 250 g ai/ha
  Plant response rating, Windgrass: 100
[2]
  Plant response rating (0 to 100), Barley: 0
[2]; 62 g ai/ha
  Plant response rating, Barley: 10
[2]; 125 g ai/ha
  Plant response rating, Barley: 50
[2]; 250 g ai/ha
  Plant response rating, Barley: 50
[3]
  Plant response rating (0 to 100), Canarygrass: 0
[3]; 62 g ai/ha
  Plant response rating, Canarygrass: 0
[3]; 125 g ai/ha
  Plant response rating, Canarygrass: 10
[3]; 250 g ai/ha
  Plant response rating, Canarygrass: 10
[4]
  Plant response rating (0 to 100), Chickweed: 0
[4]; 62 g ai/ha
  Plant response rating, Chickweed: 60
[4]; 125 g ai/ha
  Plant response rating, Chickweed: 70
[4]; 250 g ai/ha
  Plant response rating, Chickweed: 95
[5]; 16 g ai/ha, preemergence
  Plant response rating, Crabgrass, Large: 65
[5]; 62 g ai/ha, Preemergence
  Crabgrass, Large plant response rating: 98
[5]; 125 g ai/ha, preemergence
  Crabgrass, Large plant response rating: 100
[5]; Preemergence, 31 g ai/ha
  Plant response rating, Crabgrass, Large: 98
[6]; [12]
  Plant response rating, Barnyardgrass: 75
[6]; [13]
  Barnyardgrass plant response rating: 100
[6]; [14]
  Barnyardgrass plant response rating: 100
[6]; [15]
  Plant response rating, Barnyardgrass: 90
[7]; 16 g ai/ha, preemergence
  Plant response rating, Sowthistle: 80
[7]; preemergence
  Sowthistle plant response rating: 100
[7]; Preemergence, 62 g ai/ha
  Plant response rating, Sowthistle: 100
[7]; Preemergence, 31 g ai/ha
  Plant response rating, Sowthistle: 80
[8]; 62 g ai/ha, Preemergence
  Chickweed plant response rating: 100
[8]; 125 g ai/ha, preemergence
  Chickweed plant response rating: 100
[8]; Preemergence, 31 g ai/ha
  Plant response rating, Chickweed: 40
[9]
  Plant response rating, Dayflower: 50
[10]; 16 g ai/ha, preemergence
  Plant response rating, Horseweed: 0
[10]; 62 g ai/ha, Preemergence
  Horseweed plant response rating: 100
[10]; 125 g ai/ha, preemergence
  Horseweed plant response rating: 100
[10]; Preemergence, 31 g ai/ha
  Plant response rating, Horseweed: 0
[11]; 16 g ai/ha, preemergence
  Plant response rating, Spanishneedles: 0
[11]; preemergence
  Spanishneedles plant response rating: 98
[11]; Preemergence, 62 g ai/ha
  Plant response rating, Spanishneedles: 90
[11]; Preemergence, 31 g ai/ha
  Plant response rating, Spanishneedles: 65
